Measurements reported in patent US12589085B2, “Use of diaminoguanidine derivative and feed composition thereof in preparation of veterinary drug” (priority 2019, dated 2026).
Where two headings read alike, the source gives them in different places.

Experiments:
[1] = system: TA102; assay: Salmonella typhimurium reverse mutation assay, plate incorporation, TA102; settings: positive control, TA102 −S9, 1.0 μL/100 μL dish
Procedure: (§1) Test strains: A set of standard test strains of TA97, TA98, TA100 and TA102 were provided by the Jiangsu Provincial Center for Disease Control and Prevention, and stored at −80° C. The test bacteria were cultured in a 37° C. water bath with shaking for 24 hours and stored at 4° C.
(§2) Enrichment culture: The main plate or the frozen-preserved strain culture was inoculated into nutrient broth, and cultivated for 10 hours at 37° C. with shaking (100 times/min). The strain culture should be more than 1˜2×10^9 viable bacteria per milliliter.
(§3) According to the physicochemical properties of the test article, the Compound 2 was prepared before test: 0.1 g of Compound 2 white powder was under UV sterilization for 2 h before test, and dissolved in 10 mL of dimethyl sulfoxide (DMSO), and then diluted to the desired concentration for the use (fresh preparation). […]
(§4) Preparation of test agent solution: 0.1 mL of test agent solution was added to each dish, and the highest concentration and volume of test agent solution to be prepared were determined according to the set maximum test dose of 10 mg/mL. The amount of the test agent to be weighed was calculated when the solution was prepared. […]
(§5) Judgment and evaluation of results: The results of each test were sorted out, and the number of strains turned into colonies was expressed as (x±SD)/dish. […]

[2] = system: sperm; settings: oral once a day 5 days; for Total number of abnormal sperm / abnormal sperm: Amorphous / abnormal sperm: Banana shape / abnormal sperm: Double head / abnormal sperm: Double tail / abnormal sperm: Fat head / abnormal sperm: Fold tail / abnormal sperm: No hook: Day 35, 10000 sperm; for Number of Abnormal sperm (x ± SD) / Sperm deformity: Day 35, n = 10
Procedure: Experimental animals: 60 clean-grade healthy male ICR mice having the average weight of 18-20 g, purchased from the Comparative Medicine Center of Yangzhou University.
Reagents: Test agent, Compound 2, provided by Guangzhou Insighter Biotechnology Co., Ltd., was prepared into a suspension of the required concentration with 1.0% sodium carboxymethyl cellulose before use; the mutagenic positive control article of cyclophosphamide with the content of 99.00%; other reagents include sodium chloride, methanol, and eosin, all of analytical grade; self-prepared physiological saline; self-prepared eosin aqueous solution (2%).
The test article, Compound 2 was diluted with 1.0% sodium carboxymethyl cellulose as a solvent, and it was given by oral in different concentrations and the same volume. There is also a positive control and a negative (solvent) control. The cyclophosphamide was selected as the positive control (40 mg/kg).
Grouping of experimental animals: 60 healthy male mice were individually weighed, labeled and numbered, and they were divided into 5 groups with 12 mice in each group using a completely random method. It was ensured that 10 animals in each group survive for sampling and film making after administration.
Administration: The administration method is carried out according to GB15193.7-2003. The test group, the negative control and the positive control are all given the test article by oral once a day for 5 consecutive days. The weight of the mouse for each administration was weighed, and the volume of the test article that each mouse should administer was calculated according to the requirements of the mouse 0.2 mL/10 g b.w.
Sampling and sample preparation: The mice were sacrificed by cervical dislocation on the Day 35 after the first administration, and sampling and film making were performed. 10 mice were sampled in each dose group. The abdominal cavity was cut, the epididymis on both sides were separated and extracted, and put in a petri dish containing 2 mL of normal saline; The mice were longitudinally cut with ophthalmological scissors for 2 times, the normal saline in it was pipetted with a straw for several times, and let stand for 3 min; the tissue fragments were filtered with a 4-layer of lens cleaning paper, 1 drop of the filtrate was drawn onto the glass slide, the slide was pushed with 4 slides per mouse; the slide in the air dried naturally, and fixed with methanol for 10 minutes, and dried; stained with 2% eosin for 1 h, the dye solution was gently washed off with water, and it was dried naturally before microscopic examination.
Data collation and analysis: The number of normal sperm, the number of abnormal sperm and the number of various types of abnormal sperm were read and counted in each dose group of mice. The sperm abnormality rate (%) of mice in each dose group and the percentage (%) of various types of abnormal sperm were calculated, and the standard deviation of the sperm abnormality rate of mice was also calculated in each dose group. Calculation as follows:
The sperm abnormality rate of mice in each dose group was statistically compared with the sperm abnormality rate of mice in the negative (solvent) control. The experimental data was processed by SPSS 11.0 statistical software, and the analysis results were expressed as x±SD, and the incidence of sperm abnormalities was statistically processed according to the X^2 (α=0.05).
If the dose of the test group has caused the animal to die, while the sperm abnormality has not increased, the result can be judged to be negative.

[3] = system: TA98; assay: Salmonella typhimurium reverse mutation assay, plate incorporation, TA98; settings: positive control, TA98 −S9, 50 μg/100 μL dish
Procedure: as §1, §2, §3, §4, §5

[4] = system: TA97; assay: Salmonella typhimurium reverse mutation assay, plate incorporation, TA97; settings: positive control, TA97 −S9, 50 μg/100 μL dish
Procedure: as §1, §2, §3, §4, §5

[5] = system: sows suffering from endometritis; assay: Efficacy on endometritis in postpartum sows; format: in vivo, pig; settings: uterine perfusion 10 mg/kg once a day for 7 days; 30 sows
Procedure: Sows suffering from endometritis in 5 different pig farms were selected, 30 cases in each farm, 150 cases in total, were randomly divided into groups, and a non-treatment control was set up, and the sick pigs in each experimental group were perfused into the uterus. Agents, the main components of the uterine perfusion for treatment groups 1-4 were Compound 1, Compound 2, Compound 3, and Compound 4, respectively, at a dose of 10 mg/kg, and the control group was given an equal volume of normal saline. The frequency of administration is once a day for 7 consecutive days.

COS(C)(=O)=O [Methyl Methanesulfonate, methyl methanesulfonate, reference compound]
reverting colonies per dish (x ± SD) ([1]; First): 392.67 ± 12.86
reverting colonies per dish (x ± SD) ([1]; Second): >2000

isopropoxyphenylguanidine [Compound 2]
Total number of abnormal sperm ([2]; high 500 mg/kg): 224
abnormal sperm: Amorphous ([2]; high 500 mg/kg): 106
abnormal sperm: Banana shape ([2]; high 500 mg/kg): 22
abnormal sperm: Double head ([2]; high 500 mg/kg): 5
abnormal sperm: Double tail ([2]; high 500 mg/kg): 9
abnormal sperm: Fat head ([2]; high 500 mg/kg): 10
abnormal sperm: Fold tail ([2]; high 500 mg/kg): 9
abnormal sperm: No hook ([2]; high 500 mg/kg): 63
Number of Abnormal sperm (x ± SD) ([2]; high 500 mg/kg): 22.40 ± 1.84
Sperm deformity ([2]; high 500 mg/kg): 2.17 ± 0.16%
Total number of abnormal sperm ([2]; low 125 mg/kg): 223
abnormal sperm: Amorphous ([2]; low 125 mg/kg): 118
abnormal sperm: Banana shape ([2]; low 125 mg/kg): 16
abnormal sperm: Double head ([2]; low 125 mg/kg): 4
abnormal sperm: Double tail ([2]; low 125 mg/kg): 6
abnormal sperm: Fat head ([2]; low 125 mg/kg): 5
abnormal sperm: Fold tail ([2]; low 125 mg/kg): 5
abnormal sperm: No hook ([2]; low 125 mg/kg): 69
Number of Abnormal sperm (x ± SD) ([2]; low 125 mg/kg): 22.30 ± 1.70
Sperm deformity ([2]; low 125 mg/kg): 2.15 ± 0.16%
Total number of abnormal sperm ([2]; medium 250 mg/kg): 221
abnormal sperm: Amorphous ([2]; medium 250 mg/kg): 111
abnormal sperm: Banana shape ([2]; medium 250 mg/kg): 21
abnormal sperm: Double head ([2]; medium 250 mg/kg): 5
abnormal sperm: Double tail ([2]; medium 250 mg/kg): 7
abnormal sperm: Fat head ([2]; medium 250 mg/kg): 7
abnormal sperm: Fold tail ([2]; medium 250 mg/kg): 5
abnormal sperm: No hook ([2]; medium 250 mg/kg): 65
Number of Abnormal sperm (x ± SD) ([2]; medium 250 mg/kg): 22.10 ± 1.37
Sperm deformity ([2]; medium 250 mg/kg): 2.14 ± 0.14%

CN(C)c1ccc(N=NS(=O)(=O)[O-])cc1.[Na+] [Dixon, reference compound]
reverting colonies per dish (x ± SD) ([3]; First): 932.00 ± 57.17
reverting colonies per dish (x ± SD) ([3]; Second): >2000
reverting colonies per dish (x ± SD) ([4]; First): >2000
reverting colonies per dish (x ± SD) ([4]; Second): >2000

N=C(N/N=C/c1ccc(OCc2ccccc2)cc1)N/N=C/c1ccc(OCc2ccccc2)cc1 [Compound 3]
Cure rate [5]: 90.0%
Treatment effects: sows cured [5]: 25 sows were cured,
Treatment effects: sows improved in symptoms [5]: 2 sows improved

N=C(N/N=C/c1ccc([N+](=O)[O-])cc1)N/N=C/c1ccc([N+](=O)[O-])cc1 [Compound 1]
Cure rate [5]: 93.3%
Treatment effects: sows cured [5]: 27 sows were cured,
Treatment effects: sows improved in symptoms [5]: 1 sow improved sows

COC(=O)c1ccc(/C=N/NC(=N)N/N=C/c2ccc(C(=O)OC)cc2)cc1 [Compound 4]
Cure rate [5]: 100%
Treatment effects: sows cured [5]: 25 sows were cured,
Treatment effects: sows improved in symptoms [5]: 5 sows improved
